The source of these data is ChEMBL document CHEMBL5357074, “Cannabidiol-Based Prodrugs: Synthesis and Bioevaluation” (ACS Med Chem Lett, 2024).

Data set [1] in a line: Chemical stability in SIF at 2 mg/ml incubated for 2 hrs by HPLC analysis. In kind it is physicochemical. To be noted: read-out: Stability.
Data set [2] in a line: AUC (0 to infinity) in fasted Wistar rat at 75 mg/kg, po measured for 24 hrs by LCMS/MS analysis. The format is ADME, organism-based. Also noted: time 24 hrs, dose 75 mg/kg, route po. Particulars: in vivo.
Data set [3] can be described thus: AUC (0 to t) in fasted Swiss mouse at 75 mg/kg, po measured for 24 hrs by LCMS/MS analysis. The format is ADME, organism-based. Also noted: time 24 hrs, dose 75 mg/kg, route po. Particulars: in vivo.
Data set [4] is described as follows: in vivo. To be noted: Swiss, mouse, po, 75 mg/kg.
Description: Tmax in fasted Swiss mouse at 75 mg/kg, po measured for 24 hrs by LCMS/MS analysis
Data set [5] in a line: Thermodynamic equilibrium solubility in water at 1 to 1200 ug incubated for 4 hrs by absorbance based assay. In kind it is physicochemical. To be noted: dose 1-1200 µg, read-out: Therm_solubility.
Data set [6] is described as follows: Cmax in fasted Wistar rat at 75 mg/kg, po measured for 24 hrs by LCMS/MS analysis. Particulars: in vivo. The format is ADME, organism-based. Set-up: time 24 hrs, dose 75 mg/kg, route po.
Data set [7] can be described thus: Chemical stability in SGF at 2 mg/ml incubated for 2 hrs by HPLC analysis. In kind it is physicochemical. To be noted: read-out: Stability.
The nature of data set [8]: Thermodynamic equilibrium solubility SIF at 1 to 1200 ug incubated for 4 hrs by absorbance based assay. The format is physicochemical. Particulars: dose 1-1200 µg, read-out: Therm_solubility.
A short description of data set [9]: AUC (0 to infinity) in fasted Swiss mouse at 75 mg/kg, po measured for 24 hrs by LCMS/MS analysis. To be noted: in vivo. In kind it is ADME, organism-based. Also noted: dose 75 mg/kg, time 24 hrs, route po.
Data set [10] can be described thus: Chemical stability in water at 2 mg/ml incubated for 2 hrs by HPLC analysis. The format is physicochemical. Particulars: read-out: Stability.
A short description of data set [11]: Clearance in fasted Swiss mouse at 75 mg/kg, po measured for 24 hrs by LCMS/MS analysis. In kind it is ADME, organism-based. To be noted: in vivo.
Data set [12] in a line: Oral bioavailability in Swiss mouse at 5 mg/kg measured for 24 hrs by LCMS/MS analysis. In kind it is ADME, organism-based. Particulars: in vivo.
Data set [13] can be described thus: Clearance in fasted Wistar rat at 75 mg/kg, po measured for 24 hrs by LCMS/MS analysis. To be noted: in vivo. In kind it is ADME, organism-based.
Data set [14] is described as follows: AUC (0 to t) in fasted Wistar rat at 75 mg/kg, po measured for 24 hrs by LCMS/MS analysis. The format is ADME, organism-based. Also noted: dose 75 mg/kg, time 24 hrs, route po. Particulars: in vivo.
Data set [15] is described as follows: in vivo. To be noted: Wistar, rat, po, 75 mg/kg.
Description: Tmax in fasted Wistar rat at 75 mg/kg, po measured for 24 hrs by LCMS/MS analysis
Data set [16] is described as follows: Thermodynamic equilibrium solubility SGF at 1 to 1200 ug incubated for 4 hrs by absorbance based assay. Particulars: dose 1-1200 µg, read-out: Therm_solubility. In kind it is physicochemical.
Data set [17] is described as follows: Cmax in fasted Swiss mouse at 75 mg/kg, po measured for 24 hrs by LCMS/MS analysis. The format is ADME, organism-based. Also noted: dose 75 mg/kg, time 24 hrs, route po. To be noted: in vivo.
The nature of data set [18]: Volume of distribution in fasted Swiss mouse at 75 mg/kg, po measured for 24 hrs by LCMS/MS analysis. In kind it is ADME, organism-based. To be noted: in vivo.
A short description of data set [19]: Volume of distribution at steady state in fasted Wistar rat at 75 mg/kg, po measured for 24 hrs by LCMS/MS analysis. In kind it is ADME, organism-based. Particulars: in vivo.
The nature of data set [20]: Prodrug conversion in human plasma assessed as drug release measured after 24 hrs by HPLC analysis. The format is ADME, cell-free.
A short description of data set [21]: Stability in Balb/C mouse plasma assessed as compound degradation at 10 uM incubated for 2 hrs by LC-MS/MS analysis. In kind it is ADME, cell-free. To be noted: read-out: Drug degradation.
Data set [22] can be described thus: Prodrug conversion in human plasma assessed as formation of O-{2-(4-cyclopropylpiperazin-1-yl)acetyl}cannabidiol metabolite measured for 1 to 8 hrs by HPLC analysis. The format is ADME, cell-free. To be noted: time 1-8 hrs.
A further data set concerns Mus musculus. The experiment in a line: Antiepileptic activity in MES Swiss Albino mouse model assessed as decrease in convulsion duration at 75 mg/kg, po equivalent to Cannabidiol pretreated for 30 mins followed by induction of epileptic seizures measured for 1 to 8 hrs. Particulars: time 1.5-8.5 hrs. The format is functional, organism-based.
The nature of data set [23]: Prodrug conversion in human plasma assessed as formation of O-(2-morpholinoacetyl)cannabidiol metabolite measured for 1 hr by HPLC analysis. In kind it is ADME, cell-free.
Data set [24] is described as follows: Volume of distribution at steady state in fasted Wistar rat at 75 mg/kg, po equivalent to Cannabidiol measured for 24 hrs by LCMS/MS analysis. Particulars: in vivo. The format is ADME, organism-based.
A short description of data set [25]: Volume of distribution in fasted Swiss mouse at 75 mg/kg, po equivalent to Cannabidiol measured for 24 hrs by LCMS/MS analysis. Particulars: in vivo. The format is ADME, organism-based.

Structures are written as SMILES. In brackets after ≈: the same amount, converted by molar mass. Activity calls are given as the source filed them. The calls are words filed in the database; no cut-off is given here.

On to `C=C(C)[C@@H]1CCC(C)=C[C@H]1c1c(O)cc(CCCCC)cc1O` [CANNABIDIOL], for which the remaining at 2 h, 2 mg/ml in data set [1], in [7] and in [10] was no less than 74% in each case. The figures for the AUC(0-inf) in data set [2] and in [9] were 10.2 µg·h/mL and 4.87 µg·h/mL, respectively. Besides, the AUC(0-t) at 24 h in data set [3] turned out to be 4.66 µg·h/mL; in data set [14] it was 9.46 µg·h/mL. Also, the Tmax at 24 h in “in vivo [4]” is 2 h; in “in vivo [15]”, 8 h. Moreover, the solubility thermodynamic at 4 h in data set [5], in [8] and in [16] was less than 0.005 mg/mL each time. Moreover, the values for the Cmax in data set [6] and in data set [17] were 0.728 µg/mL and 0.669 µg/mL, respectively. In addition, the CL/F in data set [11] is 15 L/h/kg; in data set [13] it was 7.4 L/h/kg. Further, in data set [12], the bioavailability is 24%. In addition, the Vd in data set [18] was determined as 137 L/kg. The same compound registered a Vdss in data set [19] of 77 L/kg.

Consider `C=C(C)[C@@H]1CCC(C)=C[C@H]1c1c(O)cc(CCCCC)cc1OC(=O)CN1CCC(O)CC1`, for which the Drug metabolism in data set [20] worked out at 73%.

In the case of `CCOC(=O)[C@H](CCc1ccccc1)N[C@@H](C)C(=O)N1CCC[C@H]1C(=O)O` [ENALAPRIL], in [21], the metabolised at 2 h, 10 µM was greater than 80%.

Take `C=C(C)[C@@H]1CCC(C)=C[C@H]1c1c(OC(=O)CN2CCN(C3CC3)CC2)cc(CCCCC)cc1OC(=O)CN1CCN(C2CC2)CC1`: the values for the Drug metabolism in data set [20] and in data set [22] were 27% and “Metabolite_Detected”, respectively.

Regarding `C=C(C)[C@@H]1CCC(C)=C[C@H]1c1c(O)cc(CCCCC)cc1OC(=O)CN1CCN(C2CC2)CC1`, in data set [20], the Drug metabolism came to 56%.

Turning to `C=C(C)[C@@H]1CCC(C)=C[C@H]1c1c(O)cc(CCCCC)cc1OC(=O)CN1CCN(C(C)C)CC1`, the Drug metabolism in data set [20] is recorded as 78%.

As for `C=C(C)[C@@H]1CCC(C)=C[C@H]1c1c(O)cc(CCCCC)cc1OC(=O)CN1CCC(c2ccccc2)CC1`, in data set [20], the Drug metabolism came out at 4.6%.

Turning to `C=C(C)[C@@H]1CCC(C)=C[C@H]1c1c(O)cc(CCCCC)cc1OC(=O)CN1CCN(c2ccccc2)CC1`, in data set [20], the Drug metabolism worked out at 9.2%.

Consider `C=C(C)[C@@H]1CCC(C)=C[C@H]1c1c(O)cc(CCCCC)cc1OC(=O)CN1CCCC1`, for which the Drug metabolism in [20] is listed as 74%.

For `C=C(C)[C@@H]1CCC(C)=C[C@H]1c1c(OC(=O)CN2CCOCC2)cc(CCCCC)cc1OC(=O)CN1CCOCC1`, in the data set on Mus musculus, the result was Active. Besides, the solubility thermodynamic at 4 h in data set [5] came out at 0.12 mg/mL (≈ 211 µM); in data set [8], 0.12 mg/mL (≈ 211 µM); in data set [16] it was 4 mg/mL (≈ 7030 µM). The Drug metabolism in data set [20] was 52%; in data set [23], “Metabolite_Detected”. In data set [24], the Vdss worked out at 93 L/kg. Besides, in data set [25], the Vd amounted to 224 L/kg.

In the case of `O=C(O)CN1CCOCC1`, the remaining at 2 h, 2 mg/ml in [1] and in data set [10] was no less than 74% throughout.

On to `C=C(C)[C@@H]1CCC(C)=C[C@H]1c1c(O)cc(CCCCC)cc1OC(=O)CN1CCN(C)CC1`, for which the Drug metabolism in [20] was determined as 59%.

In the case of `C=C(C)[C@@H]1CCC(C)=C[C@H]1c1c(O)cc(CCCCC)cc1OC(=O)CN1CCOCC1`, the results for the solubility thermodynamic at 4 h in [5], in [8] and in data set [16] were 0.04 mg/mL (≈ 90.6 µM), 0.08 mg/mL (≈ 181 µM) and 0.4 mg/mL (≈ 906 µM), respectively. Moreover, the Drug metabolism in [20] turned out to be 84%. In addition, in data set [24], the Vdss stood at 32 L/kg. Besides, in [25], the Vd turned out to be 108 L/kg.

`O=C(/C=C/C=C/c1ccc2c(c1)OCO2)N1CCCCC1` [PIPERINE]: the solubility thermodynamic at 4 h in data set [5] worked out at 0.04 mg/mL (≈ 140 µM); in [8], 0.06 mg/mL (≈ 210 µM); in data set [16], 0.04 mg/mL (≈ 140 µM).

What is called AUC(0-inf) is total exposure, with the tail of the curve extrapolated. In general, AUC(0-t) refers to the area under the concentration-time curve up to a stated or last time point. Low values mean low exposure, high ones high exposure. In general, Tmax refers to the time at which the peak concentration occurs. Broadly, the Cmax is the highest concentration seen after dosing. For orientation: CL/F means clearance divided by bioavailability, as obtained after extravascular dosing. The bioavailability is dose-corrected exposure relative to a reference, in per cent. A high value points to much systemic uptake.
